Source: ChEMBL document CHEMBL2417447, “Synthesis and binary QSAR study of antitubercular quinolylhydrazides” (2013)

Legend:
[1] = tested on: Mycobacterium tuberculosis; test: Antitubercular activity against Mycobacterium tuberculosis H37Rv ATCC 27294 after 5 to 8 days by microplate alamar blue assay; type: functional
[2] = tested on: Mycobacterium tuberculosis; test: Antimycobacterial activity against Mycobacterium tuberculosis H37Rv ATCC 27294 assessed as growth inhibition at 6.25 ug/ml after 5 to 8 days by microplate alamar blue assay relative to control; type: functional; details: read-out: GI

SMILES | MIC [1] | inhibition of growth at 6.25 µg/mL [2]
O=C1Nc2ccccc2C(=O)/C1=N/Nc1ccccc1 | < 6.25 µg/mL | 97%
O=C1Nc2cc([N+](=O)[O-])ccc2C(=O)/C1=N/Nc1ccccc1-c1ccccc1 | < 6.25 µg/mL | 100%
Cc1c(Cl)cccc1N/N=C1\C(=O)Nc2cc([N+](=O)[O-])ccc2C1=O | < 6.25 µg/mL | 98%
O=C1Nc2ccc(Cl)cc2C(=O)/C1=N/Nc1ccc(Cl)cc1 | < 6.25 µg/mL | 98%
Cc1cccc(N/N=C2\C(=O)Nc3c(cccc3[N+](=O)[O-])C2=O)c1 | < 6.25 µg/mL | 95%
CN1C(=O)/C(=N\Nc2ccccc2[N+](=O)[O-])C(=O)c2ccccc21 | < 6.25 µg/mL | 94%
O=C1Nc2c(ccc(Cl)c2Cl)C(=O)/C1=N/Nc1ccc([N+](=O)[O-])cc1 | < 6.25 µg/mL | 89%
O=C1Nc2c(ccc(Cl)c2Cl)C(=O)/C1=N/Nc1ccccc1 | < 6.25 µg/mL | 85%
O=C1Nc2c(cccc2[N+](=O)[O-])C(=O)/C1=N/Nc1cccc(Cl)c1 | < 6.25 µg/mL | 82%
O=C1Nc2c(cccc2[N+](=O)[O-])C(=O)/C1=N/Nc1ccccc1[N+](=O)[O-] | < 6.25 µg/mL | 80%
O=C1Nc2c(cccc2[N+](=O)[O-])C(=O)/C1=N/Nc1ccc(Cl)c(Cl)c1 | < 6.25 µg/mL | 79%
O=C1Nc2cc([N+](=O)[O-])ccc2C(=O)/C1=N/Nc1ccc(Cl)c(F)c1 | < 6.25 µg/mL | 70%
O=C1Nc2ccc(Cl)cc2C(=O)/C1=N/Nc1ccccc1[N+](=O)[O-] | < 6.25 µg/mL | 64%
O=C1Nc2c(cccc2[N+](=O)[O-])C(=O)/C1=N/Nc1ccc(Cl)cc1 | < 6.25 µg/mL | 61%
O=C1Nc2c(cccc2[N+](=O)[O-])C(=O)/C1=N/Nc1cccc([N+](=O)[O-])c1 | < 6.25 µg/mL | 60%
Cc1cccc(C)c1N/N=C1\C(=O)Nc2ccc(Cl)cc2C1=O | > 6.25 µg/mL | 13%
COc1ccc(N/N=C2\C(=O)Nc3ccc(Cl)cc3C2=O)c(C)c1 | > 6.25 µg/mL | 12%
Cc1ccc(N/N=C2\C(=O)Nc3c(Cl)ccc(Cl)c3C2=O)cc1 | > 6.25 µg/mL | 11%
CN1C(=O)/C(=N\Nc2ccc(Cl)c(Cl)c2)C(=O)c2ccccc21 | > 6.25 µg/mL | 10%

SMILES | MIC [1] | inhibition of growth at 6.25 µg/mL [2]
O=C1Nc2c(Cl)cccc2C(=O)/C1=N/Nc1ccccc1Cl | > 6.25 µg/mL | 7%
CC(=O)c1ccc(N/N=C2\C(=O)Nc3cc(Cl)ccc3C2=O)cc1 | > 6.25 µg/mL | 6%
COc1ccc(N/N=C2\C(=O)Nc3cc(Cl)ccc3C2=O)cc1 | > 6.25 µg/mL | 4%
O=C1Nc2cc(Cl)ccc2C(=O)/C1=N/Nc1ccc([N+](=O)[O-])cc1 | > 6.25 µg/mL | 1%
COc1ccc2c(c1)C(=O)/C(=N/Nc1ccccc1)C(=O)N2 | > 6.25 µg/mL | 0%
O=C1Nc2c(Cl)ccc(Cl)c2C(=O)/C1=N/Nc1cccc(Cl)c1 | > 6.25 µg/mL | 32%
COc1ccccc1N/N=C1\C(=O)Nc2c(cccc2[N+](=O)[O-])C1=O | > 6.25 µg/mL | 32%
Cc1cccc(N/N=C2\C(=O)Nc3c(C)cccc3C2=O)c1 | > 6.25 µg/mL | 31%
Cc1ccc2c(c1)NC(=O)/C(=N\Nc1ccccc1Cl)C2=O | > 6.25 µg/mL | 31%
CC(=O)c1ccc(N/N=C2\C(=O)Nc3ccc(Cl)cc3C2=O)cc1 | > 6.25 µg/mL | 29%
O=C1Nc2c(ccc(Cl)c2Cl)C(=O)/C1=N/Nc1cccc([N+](=O)[O-])c1 | > 6.25 µg/mL | 27%
CC(=O)c1ccc(N/N=C2\C(=O)Nc3c(Cl)cccc3C2=O)cc1 | > 6.25 µg/mL | 24%
O=C1Nc2c(Cl)cccc2C(=O)/C1=N/Nc1cccc([N+](=O)[O-])c1 | > 6.25 µg/mL | 24%
Cc1cccc(C)c1N/N=C1\C(=O)Nc2c(cccc2[N+](=O)[O-])C1=O | > 6.25 µg/mL | 22%
O=C1Nc2c(Cl)cccc2C(=O)/C1=N/Nc1ccc(Cl)c(Cl)c1 | > 6.25 µg/mL | 21%
O=C1Nc2cc([N+](=O)[O-])ccc2C(=O)/C1=N/Nc1cccc(Cl)c1Cl | > 6.25 µg/mL | 21%
CN1C(=O)/C(=N\Nc2ccc([N+](=O)[O-])cc2)C(=O)c2ccccc21 | > 6.25 µg/mL | 20%
CC(=O)c1ccc(N/N=C2/C(=O)c3ccccc3N(C)C2=O)cc1 | > 6.25 µg/mL | 20%
Cc1cccc(N/N=C2\C(=O)Nc3cc([N+](=O)[O-])ccc3C2=O)c1 | > 6.25 µg/mL | 19%
